# Values of other authors in patent publication US8784886B2, “Coating capsules with active pharmaceutical ingredients” (GlaxoSmithKline, LLC, priority 2006, dated 2014).
# Conditions: gelatin capsules, stored and packaged under the prescribed conditions of temperature and humidity
smiles,measurement,value
"CC1=C(/C=C/C(C)=C/C=C/C(C)=C/CO)C(C)(C)CCC1 [USP vitamin A, vitamin A]",time without significant loss of potency of the encapsulated contents,≥ 3 years
